Assay results: patent publication US20230000813A1, “COMPOUND FOR THE TREATMENT OF BOVINE OR SWINE RESPIRATORY DISEASE” (Intervet Inc., priority 2016, published 2023)
≈ marks a conversion by molar mass, not a printed value.

Assays:
Assay in all cases: MIC, broth-microdilution (CLSI VET01-A4)
Format in all cases: cell-based
[1] = tested on: Mannheimia haemolytica MH 13065 (XB0446-6003.9, BRD field isolate)
In short: (§1)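 Broth microdilution per CLSI VET01-A4 using doubling dilution series of compound. MIC taken as the lowest concentration with no turbidity visible to the unaided eye, interpreted per CLSI VET01-S3.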

[2] = tested on: Mannheimia haemolytica MH 13093 (XB0472-6014.1, BRD field isolate)
In short: as §1

[3] = tested on: Pasteurella multocida PM 12080 (IV102277-0093, BRD field isolate); details: Pasteurella multocida PM 12080; for MIC: read-out: MIC PM 12080
In short: (§2)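 Read-out is visual: the MIC is the lowest compound concentration at which no turbidity is seen by eye. Trays carried a doubling dilution series, with interpretation following CLSI VET01-S3.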

[4] = tested on: Pasteurella multocida PM 6267 (P 2225 (L386), reference strain, mouse infection strain); details: Pasteurella multocida PM 6267; for MIC: read-out: MIC PM 6267
In short: as §2

[5] = tested on: Mannheimia haemolytica MH 6374 (ATCC 33396, reference strain); details: Mannheimia haemolytica MH 6374; read-out: MIC MH 6374
In short: as §2

[6] = tested on: Pasteurella multocida PM 10775 (080130003051, BRD field isolate); details: Pasteurella multocida PM 10775; for MIC: read-out: MIC PM 10775
In short: as §2

[7] = tested on: Pasteurella multocida PM 6391 (ATCC 43137, reference strain); details: Pasteurella multocida PM 6391; for MIC: read-out: MIC PM 6391
In short: as §2

[8] = tested on: Mannheimia haemolytica MH 6357 (M7/2, reference strain, cattle infection strain); details: Mannheimia haemolytica MH 6357; read-out: MIC MH 6357
In short: as §2

[9] = tested on: Mannheimia haemolytica MH 10720 (154, BRD field isolate); details: Mannheimia haemolytica MH 10720; for MIC: read-out: MIC MH 10720
In short: as §2

[10] = tested on: Mannheimia haemolytica MH 12587 (1071, BRD field isolate, macrolide-resistance: erm+, E+); details: Mannheimia haemolytica MH 12587, macrolide-resistant
In short: as §2

| SMILES | MIC [1] [µM] | MIC [2] [µM] | MIC [3] [µM] | MIC [4] [µM] | MIC [5] [µM] | MIC PM 10775 [6] | MIC [7] [µM] | MIC [8] [µM] | MIC MH 10720 [9] | MIC MH 12587 [10] [µM] | MIC PM 6267 [4] | MIC [9] [µM] | MIC PM 12080 [3] | MIC [6] [µM] | MIC PM 6391 [7] |
| --- | --- | --- | --- | --- | --- | --- | --- | --- | --- | --- | --- | --- | --- | --- | --- |
| CCC(C)C(NC(=O)c1ccc(C#Cc2ccc(CNCc3ccco3)cc2)cc1)C(=O)NO (stereo not drawn) [Compound 301] | 0.8 (≈ 0.368 µg/mL) | 0.8 (≈ 0.368 µg/mL) | 0.4 (≈ 0.184 µg/mL) | 0.4 (≈ 0.184 µg/mL) | 0.8 (≈ 0.368 µg/mL) | <=0.1 μM | 0.8 (≈ 0.368 µg/mL) | 0.4 (≈ 0.184 µg/mL) | <=0.1 μM | 1.6 (≈ 0.735 µg/mL) |  |  |  |  |  |
| CSC(C)(C)[C@H](NC(=O)c1ccc(C#Cc2ccc(CNCC#N)cc2)cc1)C(=O)NO [Compound 592] | 0.8 (≈ 0.36 µg/mL) | 0.4 (≈ 0.18 µg/mL) | 0.2 (≈ 0.0901 µg/mL) |  | 0.8 (≈ 0.36 µg/mL) | <=0.1 μM | 0.2 (≈ 0.0901 µg/mL) | 0.4 (≈ 0.18 µg/mL) | <=0.1 μM | 0.8 (≈ 0.36 µg/mL) | <=0.1 μM |  |  |  |  |
| CC(C)C(NC(=O)c1ccc(C#Cc2ccc(CNCc3ccnc(Cl)c3)cc2)cc1)C(=O)NO (stereo not drawn) [Compound 288] | 0.8 (≈ 0.393 µg/mL) | 0.8 (≈ 0.393 µg/mL) | 0.2 (≈ 0.0982 µg/mL) |  | 0.8 (≈ 0.393 µg/mL) | <=0.1 μM | 0.4 (≈ 0.196 µg/mL) | 0.4 (≈ 0.196 µg/mL) |  | 1.6 (≈ 0.786 µg/mL) | <=0.1 μM | 0.2 (≈ 0.0982 µg/mL) |  |  |  |
| CC(C)(N)C(NC(=O)c1ccc(C#Cc2ccc(CNCc3ccnc(Cl)c3)cc2)cc1)C(=O)NO (racemic) [Compound 313] | 1.6 (≈ 0.81 µg/mL) | 1.6 (≈ 0.81 µg/mL) |  |  | 0.8 (≈ 0.405 µg/mL) |  |  | 0.8 (≈ 0.405 µg/mL) |  | 1.6 (≈ 0.81 µg/mL) | <=0.1 μM | 0.4 (≈ 0.202 µg/mL) | <=0.1 μM | 0.2 (≈ 0.101 µg/mL) | <=0.1 μM |
| CC(C)(O)[C@H](NC(=O)c1ccc(C#Cc2ccc(CNCc3nccs3)s2)cc1)C(=O)NO [Compound 735] | 0.2 (≈ 0.0969 µg/mL) | 0.4 (≈ 0.194 µg/mL) |  |  | 0.2 (≈ 0.0969 µg/mL) |  |  | 0.4 (≈ 0.194 µg/mL) | <=0.1 μM | 0.4 (≈ 0.194 µg/mL) | <=0.1 μM |  | <=0.1 μM | 0.2 (≈ 0.0969 µg/mL) | <=0.1 μM |
| CC(C)(N)C(NC(=O)c1ccc(C#Cc2ccc(CNCc3ccc(F)cc3)s2)cc1)C(=O)NO (racemic) [Compound 637] | 1.6 (≈ 0.791 µg/mL) | 0.8 (≈ 0.396 µg/mL) | 0.2 (≈ 0.0989 µg/mL) |  | 0.4 (≈ 0.198 µg/mL) |  | 0.4 (≈ 0.198 µg/mL) | 0.8 (≈ 0.396 µg/mL) | <=0.1 μM | 1.6 (≈ 0.791 µg/mL) | <=0.1 μM |  |  | 0.2 (≈ 0.0989 µg/mL) |  |
| CC(C)(N)C(NC(=O)c1ccc(C#Cc2ccc(CNCc3nccs3)s2)cc1)C(=O)NO (stereo not drawn) [Compound 564] | 0.8 (≈ 0.387 µg/mL) | 0.8 (≈ 0.387 µg/mL) |  |  | 0.4 (≈ 0.193 µg/mL) | <=0.1 μM |  | 0.8 (≈ 0.387 µg/mL) | <=0.1 μM | 0.8 (≈ 0.387 µg/mL) | <=0.1 μM |  | <=0.1 μM |  | <=0.1 μM |
| C[C@@H](O)[C@H](NC(=O)c1ccc(C#Cc2ccc(CN3CCc4ccccc4C3)o2)cc1)C(=O)NO [Compound 203] | 0.8 (≈ 0.379 µg/mL) | 0.8 (≈ 0.379 µg/mL) | 0.2 (≈ 0.0947 µg/mL) |  | 0.8 (≈ 0.379 µg/mL) | <=0.1 μM | 0.4 (≈ 0.189 µg/mL) | 0.8 (≈ 0.379 µg/mL) | <=0.1 μM | 1.6 (≈ 0.758 µg/mL) | <=0.1 μM |  |  |  |  |
| CCC(C)C(NC(=O)c1ccc(C#Cc2ccc(CNCc3cccs3)cc2)cc1)C(=O)NO (stereo not drawn) [Compound 302] | 0.8 (≈ 0.38 µg/mL) | 0.8 (≈ 0.38 µg/mL) | 0.2 (≈ 0.0951 µg/mL) | 0.2 (≈ 0.0951 µg/mL) | 1.6 (≈ 0.761 µg/mL) | <=0.1 μM | 0.8 (≈ 0.38 µg/mL) | 0.4 (≈ 0.19 µg/mL) |  | 1.6 (≈ 0.761 µg/mL) |  | 0.2 (≈ 0.0951 µg/mL) |  |  |  |
